Measurements published in article PMC10056485 (International Journal of Molecular Sciences, 2023).
Values joined by “and” are separate entries in the source; they are usually repeats but may differ in a detail not shown here. Equal values may be shown once. Read-outs that look alike come from different tables or passages of the source. Marks after values point to notes of the source that are not given here. Values belong to the compound of their own block, whether it stands above or below them.

Legend:
[1] = cited from earlier work
[2] = parameters: method as in PMID 32533042; details: cited from earlier work; for Complete recanalization rate: p = 0.014
[3] = Organ distribution (biodistribution) of cabozantinib in rats with or without radiotherapy; assay type: in vivo, Sprague–Dawley rats; details: for Concentration of cabozantinib in brain / Concentration of cabozantinib in heart / Concentration of cabozantinib in kidney / Concentration of cabozantinib in liver / Concentration of cabozantinib in lung / Concentration of cabozantinib in spleen: rat, 6 mg/kg p.o. 3 days, six hours after administration
Protocol: The whole liver was targeted for irradiation. […] The data were collected from six rats per group.
Nine Gy was used to simulate the SBRT dose.
The brain, liver, heart, spleen, lung and kidney were collected and weighed. These collected samples were stored at −20 °C until analysis.
The thawed organ samples were homogenized in 50% aqueous acetonitrile (the ratio of sample weight to volume was 1:5), and the homogenate was centrifuged at 13,000× g for 10 min at 4 °C. The supernatant was collected, placed in brown Eppendorf tubes, and stored at −20 °C until analysis. Briefly, each organ sample (50 μL) was combined with 150 μL of IS solution (diethylstilbestrol) for protein precipitation. Finally, 20 μL of filtrate was subjected to HPLC analysis.

[4] = Sprague-Dawley, rat, in vivo
Protocol: (§1) The HPLC system consisted of a chromatographic pump (LC-20AT), an online injector (SIL-20C) equipped with a 10 μL sample loop to inject the sample and an ultraviolet detector (SPD-M20A). […] Biochanin A was used as the internal standard (IS), and the retention time of biochanin A was 3.8 min (Figure 4).
(§2) A freely moving rat model was designed for the current study [19]. Briefly, the whole liver for the EBRT technique or central area 1.5 × 1.5 cm in size for the SBRT technique of rats was localized by computed tomography. For the whole liver field, the cranial margin was set 5 mm from the top of the diaphragm, and the caudal margin was set 5 mm lower than the liver margin. The whole liver was targeted for irradiation. […] The data were collected from six rats per group.
(§3) A radiation dose of 2 Gy was considered the daily conventional dose or the off-target dose around the target that received an ablation RT dose. Nine Gy was used to simulate the SBRT dose. […] Rats were initially anesthetized with pentobarbital (50 mg/kg, i.p.) and remained anesthetized throughout the experimental period. After the surgery, the rats were placed in an experimental cage and allowed to recover for 1 day. Cabozatinib was dissolved in triply deionized water and administered (6 mg/kg, p.o.) to the rats (n = 6 per group).
(§4) Blood samples were collected via polyethylene tubing (PE-50) implanted into the jugular vein of each rat in a heparin-rinsed vial. An aliquot of 100–120 µL of blood was collected at time intervals of 0, 5, 15, 30, 45, 60, 90, 120, 150, 180, 210 and 240 min following drug administration. At each time point, 200 μL of blood was drawn into heparin-rinsed Eppendorf tubes and then centrifuged at 13,000 rpm for 10 min at 4 °C to obtain plasma. Plasma was stored at −20 °C until analysis. Each collected blood sample was transferred to a heparinized microcentrifuge tube and centrifuged at 13,000 rpm for 10 min. The resulting plasma (50 μL) was then mixed with 150 μL of internal standard solution (10 μg/mL). The denatured protein precipitate was separated by vortexing for 20 s and centrifuged at 13,000 rpm for 10 min at 4 °C.
(§5) Pharmacokinetic parameters, including the area under the concentration versus time curve (AUC), clearance (CL), elimination half-life (𝑡1/2), volume of distribution at steady state (Vss) and mean residence time (MRT), were calculated using the pharmacokinetics calculation software WinNonlin Standard Edition, Version 1.1 (Scientific Consulting, Apex, NC, USA) by a compartmental method. Relative bioavailability (RB %) = (AUCirradiated/AUCcontrol) × 100.

[5] = cited from earlier work; remark: listed apart in the source
[6] = metastatic renal cell carcinoma patients, cited from earlier work
[7] = cited from earlier work; remark: listed apart in the source
[8] = tested on: plasma protein; details: cited from earlier work
[9] = parameters: method as in PMID 30649748; details: cited from earlier work
[10] = tested on: triple-negative 4T1 cells; details: combination of RT with cabozantinib, in vitro; cited from earlier work
[11] = tested on: tumor growth; details: combination of cabozantinib and irradiation, in vivo; cited from earlier work
[12] = Pharmacokinetics of cabozantinib in plasma of freely moving rats with or without liver radiotherapy; details: for AUC(0-t): AUC0-T; for AUC(0-t) / Cmax / MRT / Tmax / Vss: rat plasma, 6 mg/kg p.o. q.d. 3 days
Protocol: as §1, §2, §3, §4, §5

[13] = rats, RT9Gy×3 f'x sequential compared to RT9Gy×3 f'x concurrent regimen, p = 0.02
[14] = phase III study of HCC, cabozantinib alone
[15] = Sprague-Dawley, rat, plasma, po, 6 mg/kg, RT 2Gy x 3 f'x concurrent
[16] = Sprague-Dawley, rat, plasma, po, 6 mg/kg, RT 2Gy x 3 f'x sequential
[17] = Sprague-Dawley, rat, plasma, po, 6 mg/kg, RT 9Gy x 3 f'x concurrent
[18] = Sprague-Dawley, rat, plasma, po, 6 mg/kg, RT 9Gy x 3 f'x sequential
[19] = Sprague-Dawley, rat, plasma, po, 6 mg/kg, cabozantinib only (no RT)

Compound: COc1cc2nccc(Oc3ccc(NC(=O)NC4CC4)c(Cl)c3)c2cc1C(N)=O [lenvatinib]
Increase of AUC of lenvatinib ([1]; sequential RT9Gyx3f'x group): 2 fold

Compound: CNC(=O)c1cc(Oc2ccc(NC(=O)Nc3ccc(Cl)c(C(F)(F)F)c3)c(F)c2)ccn1 [regorafenib]
Increase of AUC of regorafenib ([1]; sequential RT9Gyx3f'x group): 1.3 fold

Compound: CNC(=O)c1cc(Oc2ccc(NC(=O)Nc3ccc(Cl)c(C(F)(F)F)c3)cc2)ccn1 [sorafenib]
Increase of AUC of sorafenib ([1]; concurrent RT9Gy groups): 4 fold | Increase of AUC of sorafenib ([1]; sequential RT9Gy group): 1.6 fold | Complete recanalization rate, SBRT relative to conventional RT ([2]; SBRT with sorafenib versus conventional RT): 3 fold | Complete recanalization rate ([2]; SBRT with sorafenib): 28% | Complete recanalization rate ([2]; conventional RT with sorafenib): 8%

Concentration of cabozantinib in brain ([3]; RT 2Gy concurrent): 0.00 ± 0.00 µg/mL or µg/g | Concentration of cabozantinib in heart ([3]; RT 2Gy concurrent): 0.52 ± 0.39 µg/mL or µg/g | Concentration of cabozantinib in kidney ([3]; RT 2Gy concurrent): 0.17 ± 0.06 µg/mL or µg/g | Concentration of cabozantinib in liver ([3]; RT 2Gy concurrent): 0.39 ± 0.16 µg/mL or µg/g | Concentration of cabozantinib in lung ([3]; RT 2Gy concurrent): 0.40 ± 0.34 µg/mL or µg/g | Concentration of cabozantinib in spleen ([3]; RT 2Gy concurrent): 0.16 ± 0.03 µg/mL or µg/g | Concentration of cabozantinib in brain ([3]; RT 2Gy sequential): 0.00 ± 0.00 µg/mL or µg/g | Concentration of cabozantinib in heart ([3]; RT 2Gy sequential): 0.26 ± 0.11 µg/mL or µg/g | Concentration of cabozantinib in kidney ([3]; RT 2Gy sequential): 0.29 ± 0.09 ^a µg/mL or µg/g | Concentration of cabozantinib in liver ([3]; RT 2Gy sequential): 0.47 ± 0.18 µg/mL or µg/g | Concentration of cabozantinib in lung ([3]; RT 2Gy sequential): 0.35 ± 0.19 µg/mL or µg/g | Concentration of cabozantinib in spleen ([3]; RT 2Gy sequential): 0.16 ± 0.05 µg/mL or µg/g | Concentration of cabozantinib in brain ([3]; RT 9Gy concurrent): 0.00 ± 0.00 µg/mL or µg/g | Concentration of cabozantinib in heart ([3]; RT 9Gy concurrent): 0.16 ± 0.05 µg/mL or µg/g | Concentration of cabozantinib in kidney ([3]; RT 9Gy concurrent): 0.16 ± 0.07 µg/mL or µg/g | Concentration of cabozantinib in liver ([3]; RT 9Gy concurrent): 0.28 ± 0.14 µg/mL or µg/g | Concentration of cabozantinib in lung ([3]; RT 9Gy concurrent): 0.16 ± 0.10 µg/mL or µg/g | Concentration of cabozantinib in spleen ([3]; RT 9Gy concurrent): 0.20 ± 0.07 µg/mL or µg/g | Concentration of cabozantinib in brain ([3]; RT 9Gy sequential): 0.00 ± 0.00 µg/mL or µg/g | Concentration of cabozantinib in heart ([3]; RT 9Gy sequential): 0.29 ± 0.09 *^b µg/mL or µg/g | Concentration of cabozantinib in kidney ([3]; RT 9Gy sequential): 0.30 ± 0.14 ^b µg/mL or µg/g | Concentration of cabozantinib in liver ([3]; RT 9Gy sequential): 0.59 ± 0.24 ^b µg/mL or µg/g | Concentration of cabozantinib in lung ([3]; RT 9Gy sequential): 0.36 ± 0.08 *^b µg/mL or µg/g | Concentration of cabozantinib in spleen ([3]; RT 9Gy sequential): 0.16 ± 0.04 µg/mL or µg/g | Concentration of cabozantinib in brain ([3]; cabozantinib only (no RT)): 0.00 ± 0.00 µg/mL or µg/g | Concentration of cabozantinib in heart ([3]; cabozantinib only (no RT)): 0.14 ± 0.06 µg/mL or µg/g | Concentration of cabozantinib in kidney ([3]; cabozantinib only (no RT)): 0.22 ± 0.06 µg/mL or µg/g | Concentration of cabozantinib in liver ([3]; cabozantinib only (no RT)): 0.44 ± 0.19 µg/mL or µg/g | Concentration of cabozantinib in lung ([3]; cabozantinib only (no RT)): 0.25 ± 0.05 µg/mL or µg/g | Concentration of cabozantinib in spleen ([3]; cabozantinib only (no RT)): 0.12 ± 0.09 µg/mL or µg/g | Increase of biodistribution in the heart ([3]; rats, RT2Gy×3 f'x concurrent regimen, printed as compared to the concurrent regimen, p = 0.04): 271.4% and 271% | Increase of biodistribution in the lung ([3]; rats, RT9Gy×3 f'x sequential compared to RT9Gy×3 f'x concurrent regimen, p = 0.004): 125% | Increase of biodistribution in the heart [3, 13]: 81.3% | Increase of biodistribution in the liver [3, 13]: 110.5% | Increase of biodistribution in the kidneys ([3]; rats, RT9Gy×3 f'x sequential compared to RT9Gy×3 f'x concurrent regimen, p = 0.048): 87.5% | Increase of biodistribution in the heart ([3]; rats, RT9Gy×3 f'x sequential regimen compared with control group, p = 0.01): 107.1% and 107% | Increase of biodistribution in the lung ([3]; rats, RT9Gy×3 f'x sequential regimen compared with control group, p = 0.02): 44% | Detection of cabozantinib in the brain ([3]; rats, any of the groups): No cabozantinib was detected | Increase of kidney biodistribution ([3]; rats, sequential RT2Gy×3 f'x compared to control group, p = 0.02): 31.8% and 32% | Decrease of Tmax [4]: 72.8% | Increase of CL [4]: 249.0% | Increase of Tmax [4]: 404.1% | concentration at 60 min ([12]; Sprague-Dawley, rat, plasma, po, 6 mg/kg): 800 ng/mL | AUC(0-t) [12, 15]: 5100 ng·h/mL | AUC(0-t) [12, 16]: 3900 ng·h/mL | AUC(0-t) [12, 17]: 4290 ng·h/mL | AUC(0-t) [12, 18]: 4180 ng·h/mL | AUC(0-t) [12, 19]: 4440 ng·h/mL | Cmax [12, 15]: 1600 ± 470 ng/mL | Cmax [12, 16]: 1360 ± 540 ng/mL | Cmax [12, 17]: 1370 ± 470 ng/mL | Cmax [12, 18]: 1350 ± 490 ng/mL | Cmax [12, 19]: 1440 ± 440 ng/mL | MRT [12, 15]: 13.7 h | MRT [12, 16]: 9.05 h | MRT [12, 17]: 11.2 h | MRT [12, 18]: 38.5 h | MRT [12, 19]: 26.7 h | Tmax [12, 15]: 0.611 h | Tmax [12, 16]: 3.08 h | Tmax [12, 17]: 0.639 h | Tmax [12, 18]: 2.92 h | Tmax [12, 19]: 2.25 h | Vss ([12]; RT 2Gy x 3 f'x concurrent): 3942 ± 1303 mL/kg | Vss ([12]; RT 2Gy x 3 f'x sequential): 5668 ± 2220 mL/kg | Vss ([12]; RT 9Gy x 3 f'x concurrent): 4204 ± 1272 mL/kg | Vss ([12]; RT 9Gy x 3 f'x sequential): 3153 ± 482 mL/kg | Vss ([12]; cabozantinib only (no RT)): 4831 ± 1307 mL/kg
Compound: COc1cc2nccc(Oc3ccc(NC(=O)C4(C(=O)Nc5ccc(F)cc5)CC4)cc3)c2cc1OC [cabozantinib]
Rate of grade 3 or 4 adverse events ([5]; cabozantinib alone for HCC treatment): 10–17% | Serious adverse events rate ([5]; cabozantinib for HCC treatment): 12% | Grade 3 or 4 diarrhea [5, 14]: 10% | Grade 3 or 4 fatigue [5, 14]: 10% | Grade 3 or 4 hypertension [5, 14]: 16% | Grade 3 or 4 increased aspartate aminotransferase level [5, 14]: 12% | Grade 3 or 4 palmar–plantar erythrodysesthesia [5, 14]: 17% | Grade 3–4 AE rate ([6]; cabozantinib concurrent with SBRT): 3.6% | Grade 3–4 AE rate ([6]; cabozantinib concurrent with conventional RT): 6.3% | Half-life [7]: approximately 110 h | Increase of AUC of cabozantinib ([7]; liver function impaired): 63–81% | Time of second absorption peak after administration ([7]; plasma concentration–time profiles): approximately 24 h | Increase of AUC of cabozantinib ([7]; renal function impaired): 7–30% | Plasma protein binding [8]: ≥ 99.7% | Osteonecrosis of jaw [9]: 1% | Risk of grade 3 or above hemorrhagic events [9]: 2.1–3% | Serious gastrointestinal perforation or fistula [9]: 1.2–3% | Effect on clonogenic survival [10]: a synergistic effect was found | Tumor growth control [11]: not increased
